Measurements: paper PMC7076739, “Cytotoxycity and antiplasmodial activity of phenolic derivatives from Albizia zygia (DC.) J.F. Macbr. (Mimosaceae)” (BMC Complementary Medicine and Therapies, 2020)
Where two headings read alike, the source gives them in different places.

Tests used:
P. falciparum strain 3D7 = assay: P. falciparum 3D7 lactate dehydrogenase assay; type: cell-based, Plasmodium falciparum; details: for IC50: read-out: IC50 against P. falciparum; for times more active than natural precursor quercetin 3-O-α-L-rhamnopyranoside (2) against P. falciparum: antiplasmodial activity, strain 3D7; for SI = IC50 HepG2 cell/IC50 P. falciparum: selectivity index, HepG2 vs P. falciparum
Protocol: P. falciparum 3D7 lactate dehydrogenase assay: Parasites of the P. falciparum strain 3D7 were grown in fresh group 0 positive human erythrocytes, obtained from the Centro Regional de Transfusion Sanguınea-SAS (Granada, Spain). This assay was performed in duplicate for each compound using a sixteen (16) point dose response curve (½ serial dilutions) with concentrations starting from 50 μM until 1.5 nM to determine the IC50s of the compounds. Adding 25 μL of P. falciparum 3D7 parasite culture (per well) containing parasitized red blood cells at 0.25% parasitaemia and 2% haematocrit in RPMI-1640, 5% Albumax II, 2% […] 0.3% glutamine and 150 μM hypoxanthine and incubated at 37 °C for 72 h with 5% CO2, 5% O2 and 95% N2. For negative and positive growth controls, 10 μM chloroquine and complete parasite growth medium were respectively used. The final readouts of the assay was done by measuring the absorbance of the reactions at 650 nm in an Envision plate reader (Perkin Elmer, USA) and the results analysed by Genedata software (GenedataAG, Basel, Switzerland), parasite growth was measured by LDH assay as previously described.
The natural compounds isolated from the leaves of A. zygia as well as their semi-synthetic derivatives were tested against Plasmodium falciparum (Table 1) using a microdilution method in liquid medium as previously described.

MCF-7 = assay: MTT cytotoxicity assay, MCF-7; type: cell-based; details: Homo sapiens, MCF7, 72 h, read-out: IC50 MCF-7
From the text: (§1) Anticancer assays: Five tumor cell lines (MiaPaca-2 (CRL-1420), a carcinoma pancreatic […]; Hep G2 (HB-80665), a perpetual cell line which was derived from the liver tissue of a […] with a well-differentiated hepatocellular carcinoma; A549 (CCL-185), a carcinoma lung from […]; A2058 (CRL-11147), Human skin melanoma from an adult derived from lymph node and MCF-7 (HTB-22), a breast adenocarcinoma […]) were obtained from ATCC. The MTT (3-(4,5-dimethylthiazol-2-yl)-2,5-diphenyltetrazoliumbromide) colorimetric assay, which measures mitochondrial metabolic activity, was employed to estimate the amount of living cells. According to the huge amount of celles to be plated, SelecT (TAP Biosystems, Royston, UK), a cell culture robotic system was used to process ten thousand cells per well (for 72 h assay). Cells were seeded at a concentration of 1× 10^4 cells/well in 200 μl culture medium and incubated at 37 °C in 5% CO2. After 24 h, the automated liquid-handling system Biomek FX (Beckman Coulter, Pasadena, CA, USA) was used to replace the medium with a final volume of 200 μL and 1 μL of compound (dilution 1/200) and to add controls to the plates and which were then be incubated for 72 h. The test compounds were examined in triplicate with serial two-fold dilutions. After incubation, MTT solution was prepared at 5 mg/mL in PBS 1X and then diluted at 0.5 mg/mL in MEM without phenol red. The sample solution in wells was removed and 100 μL of MTT dye was added to each well. The plates were gently shaken and incubated for 3 h at 37 °C in 5% CO2 incubator. The supernatant was removed and 100 μL of DMSO 100% was added. The plates were gently shaken to solubilize theoriginated formazan and absorbance at 570 nm was read in a Victor2 Wallac spectrofluorometer (PerkinElmer, Waltham, MA, USA). IC50 values were calculated as the concentration that decreases 50% of the cell viability using Genedata Screener software (Genedata AG, Basel, Switzerland). Curve fitting followed the Smart Fit strategy with Hill model selection.

A2058 = assay: MTT cytotoxicity assay, A2058; type: cell-based; details: Homo sapiens, A2058, 72 h, read-out: IC50 A2058
From the text: as §1

HepG2 = assay: MTT cytotoxicity assay, HepG2; type: cell-based; details: Homo sapiens, read-out: IC50 HepG2
From the text: as §1

A-549 = assay: MTT cytotoxicity assay, A-549; type: cell-based; details: Homo sapiens, read-out: IC50 A-549
From the text: as §1

MiaPaca-2 = assay: MTT cytotoxicity assay, MiaPaca-2; type: cell-based; details: Homo sapiens, read-out: IC50 MiaPaca-2
From the text: as §1

[1] = Plasmodium falciparum, 3D7, 72 h, strain 3D7, 72 h, LDH readout
[2] = Plasmodium falciparum, 3D7, 72 h

CC(=O)OC1C(C)OC(Oc2c(-c3ccc(O)c(O)c3)oc3cc(O)cc(O)c3c2=O)C(OC(C)=O)C1OC(C)=O (stereo not shown) [Compound 9]
IC50 (P. falciparum strain 3D7; [1]): 7.47 ± 0.25 µM
times more active than natural precursor quercetin 3-O-α-L-rhamnopyranoside (2) against P. falciparum (P. falciparum strain 3D7): over 3 times
IC50 (P. falciparum strain 3D7; strain 3D7, 72 h, LDH readout): 7.5 ± 0.25 µM
IC50 (MCF-7; MTT, 72 h): 10.8 ± 0.25 µM
IC50 (A2058; MTT, 72 h): 12.2 ± 0.25 µM
IC50 (HepG2; HepG2, MTT, 72 h): 22.6 ± 0.25 µM
IC50 (A-549; A549, MTT, 72 h): 34.8 ± 0.25 µM
IC50 (MiaPaca-2; MIA PaCa-2, MTT, 72 h): 17.4 ± 0.25 µM

COc1cccc2c1C(=O)c1c(O)c3c(c(O)c1C2=O)C[C@@](O)(C(=O)CO)C[C@@H]3O[C@H]1C[C@H](N)[C@H](O)[C@H](C)O1 [Doxorubicin, reference compound]
IC50 (MCF-7; MTT, 72 h): < 7e-05 µM
IC50 (A2058; MTT, 72 h): < 7e-05 µM
IC50 (HepG2; HepG2, MTT, 72 h): < 7e-05 µM
IC50 (A-549; A549, MTT, 72 h): < 7e-05 µM
IC50 (MiaPaca-2; MIA PaCa-2, MTT, 72 h): < 7e-05 µM

CC(=O)Oc1cc(O)c2c(=O)c(OC3OC(C)C(OC(C)=O)C(OC(C)=O)C3OC(C)=O)c(-c3ccc(O)c(O)c3)oc2c1 (stereo not shown) [Compound 10]
IC50 (P. falciparum strain 3D7; [1]): 6.77 ± 0.25 µM
times more active than natural precursor quercetin 3-O-α-L-rhamnopyranoside (2) against P. falciparum (P. falciparum strain 3D7): over 3 times
IC50 (P. falciparum strain 3D7; strain 3D7, 72 h, LDH readout): 6.8 ± 0.25 µM
IC50 (HepG2; HepG2, MTT, 72 h): 64.9 ± 0.25 µM
IC50 (A-549; A549, MTT, 72 h): 30.5 ± 0.25 µM
IC50 (MiaPaca-2; MIA PaCa-2, MTT, 72 h): 64.9 ± 0.25 µM

C[C@@H]1O[C@@H](Oc2c(-c3ccc(O)cc3)oc3cc(O)cc(O)c3c2=O)[C@H](O)[C@H](O)[C@H]1O [Compound 3, kaempferol 3-O-α-L-rhamnopyranoside]
IC50 (P. falciparum strain 3D7; [1]): 19 ± 0.25 µM
SI = IC50 HepG2 cell/IC50 P. falciparum (P. falciparum strain 3D7): (1.22)
IC50 (MCF-7; MTT, 72 h): 46.4 ± 0.25 µM
IC50 (A2058; MTT, 72 h): 46.4 ± 0.25 µM
IC50 (HepG2; HepG2, MTT, 72 h): 23.2 ± 0.25 µM
IC50 (A-549; A549, MTT, 72 h): 23.2 ± 0.25 µM
IC50 (MiaPaca-2; MIA PaCa-2, MTT, 72 h): 46.4 ± 0.25 µM

O=C(O)Cc1ccc(O)cc1OC1OC(CO)C(O)C(O)C1O [Compound 1, 2-O-β-D-glucopyranosyl-4-hydroxyphenylacetic acid]
IC50 (P. falciparum strain 3D7; [1]): > 100 µM
IC50 (MCF-7; MTT, 72 h): 42.7 ± 0.25 µM
IC50 (A2058; MTT, 72 h): 66.7 ± 0.25 µM
IC50 (HepG2; HepG2, MTT, 72 h): 121.2 ± 0.25 µM
IC50 (A-549; A549, MTT, 72 h): 121.2 ± 0.25 µM
IC50 (MiaPaca-2; MIA PaCa-2, MTT, 72 h): 30.3 ± 0.25 µM

C[C@@H]1O[C@@H](Oc2ccc(-c3oc4cc(O)cc(O)c4c(=O)c3O[C@@H]3O[C@@H](C)[C@H](O)[C@@H](O)[C@H]3O)cc2O)[C@H](O)[C@H](O)[C@H]1O [Compound 4, quercetin 3,4′-di-O-α-L-rhamnopyranoside]
IC50 (P. falciparum strain 3D7; [1]): > 100 µM
IC50 (MCF-7; MTT, 72 h): 17.3 ± 0.25 µM
IC50 (A2058; MTT, 72 h): 34.6 ± 0.25 µM
IC50 (HepG2; HepG2, MTT, 72 h): 17.3 ± 0.25 µM
IC50 (A-549; A549, MTT, 72 h): 34.6 ± 0.25 µM
IC50 (MiaPaca-2; MIA PaCa-2, MTT, 72 h): 17.3 ± 0.25 µM

CC(=O)OCC1OC(Oc2cc(OC(C)=O)ccc2CC(=O)O)C(OC(C)=O)C(OC(C)=O)C1OC(C)=O (stereo not shown) [Compound 8]
IC50 (P. falciparum strain 3D7; [1]): > 100 µM
IC50 (MCF-7; MTT, 72 h): 40.2 ± 0.25 µM
IC50 (A2058; MTT, 72 h): 40.2 ± 0.25 µM
IC50 (HepG2; HepG2, MTT, 72 h): 40.2 ± 0.25 µM
IC50 (A-549; A549, MTT, 72 h): 20.1 ± 0.25 µM
IC50 (MiaPaca-2; MIA PaCa-2, MTT, 72 h): 18.5 ± 0.25 µM

C[C@@H]1O[C@@H](Oc2ccc(-c3oc4cc(O)cc(O)c4c(=O)c3O[C@@H]3O[C@@H](C)[C@H](O)[C@@H](O)[C@H]3O)cc2)[C@H](O)[C@H](O)[C@H]1O [Compound 5, kaempferol 3,4′-di-O-α-L-rhamnopyranoside]
IC50 (P. falciparum strain 3D7; [1]): > 100 µM
IC50 (MCF-7; MTT, 72 h): 33.7 ± 0.25 µM
IC50 (A2058; MTT, 72 h): 33.7 ± 0.25 µM
IC50 (HepG2; HepG2, MTT, 72 h): 16.8 ± 0.25 µM
IC50 (A-549; A549, MTT, 72 h): 33.7 ± 0.25 µM
IC50 (MiaPaca-2; MIA PaCa-2, MTT, 72 h): 16.8 ± 0.25 µM

CC(=O)OCC1OC(Oc2cc(O)ccc2CC(=O)O)C(OC(C)=O)C(OC(C)=O)C1OC(C)=O (stereo not shown) [Compound 7]
IC50 (P. falciparum strain 3D7; [1]): > 100 µM
IC50 (MCF-7; MTT, 72 h): 37 ± 0.25 µM
IC50 (A2058; MTT, 72 h): 37 ± 0.25 µM
IC50 (HepG2; HepG2, MTT, 72 h): 37 ± 0.25 µM
IC50 (A-549; A549, MTT, 72 h): 20.1 ± 0.25 µM
IC50 (MiaPaca-2; MIA PaCa-2, MTT, 72 h): 10 ± 0.25 µM

C[C@@H]1O[C@@H](Oc2c(-c3ccc(O)c(O)c3)oc3cc(O)cc(O)c3c2=O)[C@H](O)[C@H](O)[C@H]1O [Compound 2, quercetin 3-O-α-L-rhamnopyranoside]
IC50 (P. falciparum strain 3D7; [2]): 25.1 ± 0.25 µM
SI = IC50 HepG2 cell/IC50 P. falciparum (P. falciparum strain 3D7): (3.49)
IC50 (MCF-7): 87.5 ± 0.25 µM
IC50 (A2058): 87.5 ± 0.25 µM
IC50 (HepG2; HepG2, 72 h): 87.5 ± 0.25 µM
IC50 (A-549; A549, 72 h): 89.5 ± 0.25 µM
IC50 (MiaPaca-2; MIA PaCa-2, 72 h): 87.5 ± 0.25 µM

CCN(CC)CCCC(C)Nc1ccnc2cc(Cl)ccc12 (stereo not shown) [Chloroquine, chloroquine, reference compound]
IC50 (P. falciparum strain 3D7; [2]): 0.00296 µM
